Laboratory results as given in patent US7488758B2 (Teva Pharmaceutical Fine Chemicals, S.r.l., priority 2004, dated 2009).
Where two headings read alike, the source gives them in different places.

Settings: for water content: after exposure at about 100% relative humidity for one week, hydrochloride; for water absorption, outcome in words: one-week exposure at 100% relative humidity; for LOD (%) (water content by TGA) / Polymorph by XRD: one week exposure
Method: After each exposure the water content was determined by Thermal Gravimetric Analysis (TGA) and reported as loss on drying (LOD) as a weight percentage and the crystal structure was determined by X-ray Diffraction (XRD).
The X-Ray diffraction (XRD) analysis was conducted using an ARL X-Ray powder diffractometer (model X'TRA-030) equipped with a Peltier detector, round standard aluminum sample holder with round zero background, and quartz plate. The scanning parameters were from a range of about 2-40 degree two θ (±0.2 degrees) and a continuous scan at a rate of about 3 degrees/min.
Thermal Gravimetric Analysis (TGA) was conducted using a Mettler Toledo TGA/SDTA 851^e using a sample weight of about 7-15 mg, a heating rate of about 10° C. min. under a N2 stream at a N2 flow rate of about 50 ml/min. The samples were scanned at a range between about 30° C. to about 250° C.

| water content | LOD (%) (water content by TGA) (RH 0%) | LOD (%) (water content by TGA) (RH 20%) | LOD (%) (water content by TGA) (RH 40%) | LOD (%) (water content by TGA) (RH 60%) | LOD (%) (water content by TGA) (RH 80%) | Polymorph by XRD (RH 80%) | LOD (%) (water content by TGA) (RH 100%) | Polymorph by XRD (RH 100%) | Compound | water absorption, outcome in words |
| --- | --- | --- | --- | --- | --- | --- | --- | --- | --- | --- |
| about 34% |  |  |  |  |  |  |  |  | CC(C)(C)NC[C@H](O)c1ccc(O)c(CO)c1.Cl [Polymorph A, (R)-α^1-[[(1,1-dimethylethyl)amino]methyl]-4-hydroxy-1,3-benzenedimethanol hydrochloride, reference compound] | absorbed sufficient water to dissolve the polymorph |
| about 36% | 0.21 | 0.25 | 0.25 | 0.30 | 0.48 | A >> B | 36.0 | only Polymorph A was detected | CC(C)(C)NC[C@H](O)c1ccc(O)c(CO)c1.Cl [Polymorph B, (R)-α^1-[[(1,1-dimethylethyl)amino]methyl]-4-hydroxy-1,3-benzenedimethanol hydrochloride] | absorbed sufficient water to dissolve the polymorph |
